Experimental findings from EP4775577A1, “RAS INHIBITOR” (Tyligand Bioscience (Shanghai) Limited, priority 2023, dated 2025) are described below.

Assay [1] has as its system KRAS G12V mutant NCI-H727 cells. The assay can be described thus: Proliferation inhibition of NCI-H727 cells, 3D CellTiter-Glo assay (Method B). Type of assay: cell-based, human. As to conditions: Method B, 3D culture with 0.65% methylcellulose, 5 days, CTG, read-out: NCI-H727 IC50/nM. Here is the method: NCI-H727 cells (Nanjing Kebai Biotechnology Co., Ltd., catalog number CBP60182, adherent, culture medium RPMI-1640+10%FBS (GIBCO, Cat#10091-148)) were cultured at 37°C, 5% CO2, and 95% humidity.
3D cell viability assay: Cells in the logarithmic growth phase were harvested and counted using a platelet counter. Cell viability was assessed using the trypan blue exclusion method to ensure a viability of over 90%. The 3D cell culture medium was prepared by adding 1% MC (methylcellulose, Sigma, Cat#M0512) to RPMI-1640 medium and 10% FBS. The cell concentration was adjusted to approximately 25,000 cells/mL using the 3D medium, and the methylcellulose (MC) content was set to 0.65%. Then, 80 µL of cell suspension was added to each 96-well clear, flat-bottomed, black-walled plate (Greiner, Cat# 655096). The cells in the 96-well plates were cultured overnight at 37°C and 5% CO2.
Drug preparation for IC50 assay: A 5-fold drug solution was prepared using culture medium. 20 µL of the drug solution was added to each well of a 96-well plate seeded with cells to achieve a working concentration of up to 10 µM, with a 3× dilution, and 9 concentrations. 2 replicate wells for each drug concentration were set. The cells in the drug-treated 96-well plates were cultured at 37°C and 5% CO2 for additional 5 days, then CTG assay (CellTiter-Glo® Luminescent Cell Viability Assay (Promega, Cat#G7573)) were performed.
The cell plate was equilibrated to room temperature for 30 minutes and the CTG reagent was thawed. 50 µL of CTG solution was added to each well for detection and the plate was shaken on an orbital shaker for 5 minutes to lyse the cells. The cell plate was then placed at room temperature for 25 minutes to stabilize the cryo-luminescence signal, and the cryo-luminescence value was read (EnVision® multi-plate reader, PerkinElmer#2105).
(§1) Data was analyzed using GraphPad Prism software. The dose-response-inhibition equation was used to fit the data to obtain the dose-response curve, and the IC50 value (nM) was calculated accordingly. [formula]
On the technique in general: Cellular ATP, detected with luciferase, serves as a proxy for viable cell number.

Assay [2] concerns KRAS G12D mutant AGS cells. In words: Proliferation inhibition of AGS cells, CellTiter-Glo assay. Type of assay: cell-based, human. As to conditions: 3 days, CTG, read-out: AGS IC50/nM. How it is done:
AGS cells (Nanjing Kebai Biotechnology Co., Ltd., catalog number CBP60476, adherent, culture medium (F12K Nutrient Mixture+10% FBS (GIBCO, Cat#10091-148) were cultured at 37°C, 5% CO2, and 95% humidity at a density of 1500 cells/well. Cells in the logarithmic growth phase were harvested and counted using a Countstar automated cell counter based on the classic trypan blue staining method to ensure cell viability was above 90%. The cell concentration was adjusted, and 80 µL of cell suspension was added to each 96-well clear flat-bottomed, black-walled plate (Greiner, Cat# 655090). The cells in the 96-well plates were then cultured at 37°C and 5% CO2.
Drug preparation for IC50 assay: A 5-fold drug solution was prepared using culture medium. 20 µL of the drug solution was added to each well of a 96-well plate seeded with cells to achieve a working concentration of up to 10 µM, with a 3 × dilution, and a total of 9 concentrations. 2 replicate wells for each drug concentration were set. The cells in the drug-treated 96-well plates were cultured at 37°C and 5% CO2 for additional 3 days and then CTG assay were performed.
The cell plate was equilibrated to room temperature for 30 minutes and the CTG reagent (CellTiter-Glo® Luminescent Cell Viability Assay (Promega, Cat# G7573)) was thawed. 50 µL of CTG solution was added to each well and the plate was shaken on an orbital shaker for 2 minutes to lyse the cells. The cell plate was placed at room temperature for 10 minutes to stabilize the cryo-luminescence signal and the cryo-luminescence value was read (EnVision® Multifunctional microplate reader, PerkinElmer #2105).
as §1

Counter-ions that a name gives are not always drawn. Like-named read-outs stand apart in the source and are kept apart here.

On to `CN1CC[C@H](C(F)F)[C@](C)(COc2nc(N3CCC[C@@](C)(O)C3)c3cc(C(F)(F)F)c(-c4cccc5sc(N)c(C#N)c45)c(F)c3n2)C1` (atropisomer, axis not shown) [Example 3A, (R)-2-amino-4-(2-(((3S,4S)-4-(difluoromethyl)-1,3-dimethylpiperidine-3-yl)methoxy)-8-fluoro-4-((R)-3-hydroxy-3-methylpiperidine-1-yl)-6-(trifluoromethyl)quinazoline-7-yl)benzo[b]thiophene-3-carbonitrile], for which the IC50 stood at 40.7 nM in assay [1] (Homo sapiens, NCI-H727, 120 h) and 112 nM in assay [2] (Homo sapiens, AGS, 72 h). Take `CN1CC/C(=C\F)[C@](C)(COc2nc(N3CCC[C@@](C)(O)C3)c3cc(C(F)(F)F)c(-c4cccc5sc(N)c(C#N)c45)c(F)c3n2)C1` (atropisomer, axis not shown) [Example 4A, (R)-2-amino-4-(8-fluoro-2-(((S,E)-4-(fluoromethylene)-1,3-dimethylpiperidine-3-yl)methoxy)-4-((R)-3-hydroxy-3-methylpiperidine-1-yl)-6-(trifluoromethyl)quinazoline-7-yl)benzo[b]thiophene-3-carbonitrile]: the IC50 in assay [1] (Homo sapiens, NCI-H727, 120 h) is 66.9 nM; in assay [2] (Homo sapiens, AGS, 72 h), 148 nM. With `[2H]C([2H])([2H])N1CC/C(=C\F)[C@](C)(COc2nc(N3Cc4cc(C(=O)N(C)CCOC)nn4CC[C@@H]3C)c3cc(CC)c(-c4c(F)ccc5sc(N)c(C#N)c45)c(F)c3n2)C1` (atropisomer, axis not shown) [Example 267A], the IC50 came out at 3.9 nM in assay [1] (Homo sapiens, NCI-H727, 120 h) and 4.4 nM in assay [2] (Homo sapiens, AGS, 72 h). `CN1CC/C(=C\F)[C@](C)(COc2nc(N3CCOC[C@@](C)(O)C3)c3cc(Cl)c(-c4c(F)ccc5sc(N)c(C#N)c45)c(F)c3n2)C1` (atropisomer, axis not shown; (Ra)) [Example 85A, (Ra)-2-amino-4-(6-chloro-8-fluoro-2-(((S,E)-4-(fluoromethylene)-1,3-dimethylpiperidine-3-yl)methoxy)-4-((S)-6-hydroxy-6-methyl-1,4-oxazacycloheptane-4-yl)quinazoline-7-yl)-5-fluorobenzo[b]thiophene-3-carbonitrile formate·formic acid salt]: the IC50 in assay [1] (Homo sapiens, NCI-H727, 120 h) is 17.4 nM; in assay [2] (Homo sapiens, AGS, 72 h), 22.7 nM.

For `CN1CC/C(=C\F)[C@](C)(COc2nc(N3CCOC[C@@](C)(O)C3)c3cc([N+](=O)[O-])c(-c4cccc5sc(N)c(C#N)c45)c(F)c3n2)C1` (atropisomer, axis not shown; (Ra)) [Example 87A], the IC50 in assay [1] amounted to 3.8 nM. As for `CN1CC[C@H](C(F)F)[C@](C)(COc2nc(N3CCOC[C@@](C)(O)C3)c3cc(C(F)(F)F)c(-c4c(F)ccc5sc(N)c(C#N)c45)c(F)c3n2)C1` (single isomer, unassigned) [Example 65A], the IC50 in assay [1] was < 1.5 nM.

With `CN1CC[C@H](C(F)F)[C@](C)(COc2nc(N3CCOC[C@@](C)(O)C3)c3cc(C(F)(F)F)c(-c4c(F)ccc5sc(N)c(C#N)c45)c(F)c3n2)C1` (single isomer, unassigned) [Example 65B], the IC50 in assay [1] is 39.3 nM. For `CN1CC/C(=C\F)[C@](C)(COc2nc(N3CCCn4nc(C(=O)N(C)C)c(Cl)c4C3)c3cc(C4CC4)c(-c4c(F)ccc5sc(N)c(C#N)c45)c(F)c3n2)C1` (single isomer, unassigned) [Example 161B], the IC50 in assay [2] worked out at 33.5 nM. Turning to `[2H]C([2H])([2H])N1CC/C(=C\F)[C@](C)(COc2nc(N3Cc4cc(C(=O)N(C)C)nn4CC[C@@H]3C)c3cc(Cl)c(-c4c(F)ccc5sc(N)c(C#N)c45)c(C)c3n2)C1` (single isomer, unassigned) [Example 177A], the IC50 in assay [2] (Homo sapiens, AGS, 72 h) was < 1.5 nM. Turning to `[2H]C([2H])([2H])N1CC/C(=C\F)[C@](C)(COc2nc(N3CCCn4nc(C(=O)N(C)C)c(Cl)c4C3)c3cc(Cl)c(-c4c(F)ccc5sc(N)c(C#N)c45)c(C)c3n2)C1` (single isomer, unassigned) [Example 179A], the IC50 in assay [2] (Homo sapiens, AGS, 72 h) stood at 4.2 nM. For the compound `[2H]C([2H])([2H])N1CC/C(=C\F)[C@](C)(COc2nc(N3Cc4c(F)c(C(=O)N(C)C)nn4CC[C@@H]3C)c3cc(CC)c(-c4c(F)ccc5sc(N)c(C#N)c45)c(F)c3n2)C1` (single isomer, unassigned) [Example 181A], the IC50 in assay [2] (Homo sapiens, AGS, 72 h) is < 1.5 nM. With `CN1CC[C@H](C(F)F)[C@](C)(COc2nc(N3CCOC[C@@](C)(O)C3)c3cc([N+](=O)[O-])c(-c4cccc5sc(N)c(C#N)c45)c(F)c3n2)C1` [Example 86], the IC50 in assay [1] came to 4.5 nM. For `[2H]C([2H])([2H])N1CC[C@H](C(F)F)[C@](C)(COc2nc(N3CCOC[C@@](C)(O)C3)c3cc([N+](=O)[O-])c(-c4cccc5sc(N)c(C#N)c45)c(F)c3n2)C1` [Example 86], the IC50 in assay [2] (Homo sapiens, AGS, 72 h) is 8.7 nM. In the case of `CN1CC/C(=C\F)[C@](C)(COc2nc(N3CCOC[C@@](C)(O)C3)c3cc([N+](=O)[O-])c(-c4cccc5sc(N)c(C#N)c45)c(F)c3n2)C1` [Example 87], the IC50 in assay [1] amounted to 9 nM. Consider `[2H]C([2H])([2H])N1CC/C(=C\F)[C@](C)(COc2nc(N3CCOC[C@@](C)(O)C3)c3cc(C#N)c(-c4c(F)ccc5sc(N)c(C#N)c45)c(F)c3n2)C1` [Example 88, 7-(2-Amino-3-cyano-5-fluorobenzo[b]thiophene-4-yl)-8-fluoro-2-(((S,E)-4-(fluoromethylene)-3-methyl-1-(methyl-d3)piperidine-3-yl)methoxy)-4-((S)-6-hydroxy-6-methyl-1,4-oxazacycloheptane-4-yl)quinazoline-6-carbonitrile], for which the IC50 in assay [1] (Homo sapiens, NCI-H727, 120 h) was 23.3 nM. As to `[2H]C([2H])([2H])N1CC[C@H](C(F)F)[C@](C)(COc2nc(N3CCOC[C@@](C)(O)C3)c3cc(C#N)c(-c4c(F)ccc5sc(N)c(C#N)c45)c(F)c3n2)C1` [Example 89, 7-(2-Amino-3-cyano-5-fluorobenzo[b]thiophene-4-yl)-2-(((3S,4S)-4-(difluoromethyl)-3-methyl-1-(methyl-d3)piperidine-3-yl)methoxy)-8-fluoro-4-((S)-6-hydroxy-6-methyl-1,4-oxazacycloheptane-4-yl)quinazoline-6-carbonitrile], the IC50 in assay [1] (Homo sapiens, NCI-H727, 120 h) was found to be 12.4 nM.

For `[2H]C([2H])([2H])N1CC/C(=C\F)[C@](C)(COc2nc(N3CCOC[C@@](C)(O)C3)c3cc(C#N)c(-c4cccc5sc(N)c(C#N)c45)c(F)c3n2)C1` [Example 90, 7-(2-Amino-3-cyanobenzo[b]thiophene-4-yl)-8-fluoro-2-(((S,E)-4-(fluoromethylene)-3-methyl-1-(methyl-d3)piperidine-3-yl)methoxy)-4-((S)-6-hydroxy-6-methyl-1,4-oxazacycloheptane-4-yl)quinazoline-6-carbonitrile], the IC50 in assay [1] (Homo sapiens, NCI-H727, 120 h) is 58.3 nM. Regarding `CN1CC/C(=C\F)[C@](C)(COc2nc(N3CCCn4nc(C(=O)N(C)C)nc4C3)c3cc(C(F)(F)F)c(-c4cccc5sc(N)c(C#N)c45)c(F)c3n2)C1` [Example 101], the IC50 in assay [2] (Homo sapiens, AGS, 72 h) turned out to be 100 nM. Turning to `CN1CC/C(=C\F)[C@](C)(COc2nc3c(F)c(-c4cccc5sc(N)c(C#N)c45)c(Cl)cc3c(N3CCCn4nc(C(=O)N(C)C)cc4C3)c2C#N)C1` [Example 102], in assay [1] (Homo sapiens, NCI-H727, 120 h), the IC50 came to 4270 nM. For the compound `CN1CC/C(=C\F)[C@](C)(COc2nc(N3CCCn4nc(C(=O)N(C)C)cc4C3)c3cc(C#N)c(-c4cccc5sc(N)c(C#N)c45)c(F)c3n2)C1` [Example 103], in assay [2] (Homo sapiens, AGS, 72 h), the IC50 was determined as 301 nM. On to `CN1CCC(=CF)C(C)(COc2nc(N3CCC(C#N)C(O)C3)c3cc(C(F)(F)F)c(-c4cccc5sc(N)c(C#N)c45)c(F)c3n2)C1` (stereo not shown) [Example 155], for which, in assay [1], the IC50 was 21 nM.
